Test results: BigSolDB 2.1

O=C1O[B-]2(OC1=O)OC(=O)C(=O)O2.[Li+]
solubility (mole fraction)
Details | 293.15 K | 303.15 K | 313.15 K | 323.15 K | 333.15 K | 343.15 K | 353.15 K | 363.15 K
in DMF | 0.114 | 0.0838 | 0.0658 | 0.0542 | 0.0404 | 0.0352 | 0.0323 | 0.023
in DMSO | 0.148 | 0.139 | 0.127 | 0.113 | 0.0989 | 0.0869 | 0.0774 | 0.0666
in THF | 0.0479 | 0.0336 | 0.0269 | 0.0217 | 0.0172 | – | – | –
in acetonitrile | 0.00893 | 0.00869 | 0.00803 | 0.00653 | 0.00566 | 0.00297 | – | –
in gamma-butyrolactone | 0.1 | 0.0796 | 0.0544 | 0.0372 | 0.0248 | 0.0163 | 0.00786 | 0.00503
in propylene carbonate | 0.0393 | – | 0.0312 | 0.0214 | 0.0106 | 0.00574 | 0.00218 | 0.00132
